Source: patent publication US11040052B2, “Methods and pharmaceutical compositions for modulating autophagy in a subject in need thereof” (INSERM (INSTITUT NATIONAL DE LA SANTE ET DE LA RECHERCHE …, priority 2013, dated 2021)
Entries after “also recorded” stand apart in the source; their conditions may differ.

Columns and labels:
cellular ATP levels = assay: Cellular ATP levels; assay type: cell-based; details: starved cells
[1] = tested on: U2OS cells stably expressing GFP-LC3; assay: Microinjection of AcCoA or CoA into the cytoplasm; assay type: cell-based, human; details: 10 mM injected; for Hydroxycitrate-induced autophagy after microinjection: HC-treated cells
Description: For microinjection, U2Os cells were cultured overnight on glass coverslips before injection. The setup for the injection itself was as follows: 10 mM CoA or AcCoA were injected in PBS for 0.2 s under a pressure of 150 hPa, using a Microinjector equipment (Eppendorf, Hamburg, Germany). Then cells were culture for 3 h in the presence of 100 nM bafilomycin A1 (BafA1) and fixed for fluorescence microscopy, as described below.
For microinjection, U2OS cells were cultured overnight on culture dishes before injection. The setup for the injection itself was as follows: 10 mM CoA or AcCoA in PBS were injected for 0.2 s under an injection pressure of 150 hPa and a compensatory pressure of 9 hPa, using a microinjector (Eppendorf, Hamburg, Germany). Before injection, cells were cultured for 2 h in the presence of 100 nM bafilomycin A1 (BafA1) in control medium and in presence of 20 mm Hydroxycitrate. One hour after injection, cells were fixed with 4% PFA and analyzed by fluorescent and automated videomicroscopy.

[2] = tested on: MPA/DMBA induced mammary tumors; assay: MPA/DMBA induced mammary tumor; assay type: in vivo, mice; details: mouse, in vivo
Description: Six-week-old female Balb/c mice underwent surgical implantation of slow-release MPA (Medroxyprogesterone Acetate) pellets (50 mg, 90-day release; Innovative Research of America) subcutaneously on the right flank. 200 uL of 5 mg/mL DMBA (Dimethylbenzantracene)
(Sigma Aldrich) dissolved in Corn Oil was administered by oral gavage six times during 8 weeks. Tumor formation was monitored by palpation. When tumors became palpable, mice were assigned to following groups of treatment: PBS, HCA, MTX, MTX plus HCA and the MTX plus HCA upon CD4/CD8 lymphocytes depletion. Combinatorial groups were treated as previously described, whereas for CD4/CD8 depletion, mice were intraperitoneally administrated with 500 μg of anti CD4 and CD8 antibodies the day before the onset of the treatment.

[3] = tested on: intracellular amino acid levels; assay: Intracellular amino acid levels by mass spectrometry; assay type: cell-based; details: starved cells
Description: Profiling of intracellular metabolites was performed on a RRLC 1260 system (Agilent Technologies) coupled to a QTOF 6520 (Agilent) equipped with an electrospray source operating in positive ion and full scan mode from 100 to 1000 Da. The gas temperature was set at 350° C. with a gas flow of 10 L·min^1. The capillary voltage was set at 4.0 kV, and the fragmentor at 150 V. Two reference masses were used to maintain the mass accuracy during analysis: 121.050873 (C5H4N4) and 922.009798 (C18H18O6N3P3F24). Five μL of sample were injected on a 150 mm×2.1 mm 3.5 μm SB Aq column (Agilent) with a pre-column 30 mm×2.1 mm 3.5 μm Eclipse plus (Agilent). The gradient mobile phase consisted of water with 10 mmol/L of ammonium acetate and 0.01% of acetic acid (A) and acetonitrile (B). Initial composition of mobile phase was 2% of B, followed by an increase to 95% of B in 10 min. The flow rate was set to 0.3 mL·min^−1.

MCA205 tumor = assay: Growth of transplantable tumors with chemotherapy; assay type: in vivo, mice; details: for tumor growth, combined with MTX: immunocompetent wild type mice, agent given before and with mitoxanthrone; for tumor growth, combined with MTX, immunodeficient mice: nu/nu (nude athymic) mice
Description: (§1) C57BL/6 mice (Charles River Laboratory, Lentilly, France) were bred and maintained according to both the FELASA and the Animal Experimental Ethics Committee Guidelines (Val de Marne, France). Mice were housed in a temperature-controlled environment with 12 h light/dark cycles and received food and water ad libitum. For HC-related experiments, mice were injected intraperitoneally with a single 100 mg/kg dose and 6 h later were sacrificed and tissues were immediately frozen in liquid nitrogen. For DCA- and DMKG-related experiments, mice were subjected to 24 h starvation and injected intraperitoneally each 8 h with a 100 mg/kg of either DCA or DMKG solution prepared in PBS. After 24 h of starvation, mice were sacrificed and tissues were immediately frozen in liquid nitrogen after extraction and homogenized two cycles for 20 s at 5,500 rpm using Precellys 24 tissue homogenator (Bertin Technologies, Montigny-le-Bretonneux, France) in a 20 mM Tris buffer (pH 7.4) containing 150 mM NaCl, 1% Triton X-100, 10 mM EDTA and Complete® protease inhibitor cocktail (Roche Applied Science). Tissue extracts were then centrifuged at 12,000 g at 4° C. and supernatants were collected. Protein concentration in the supernatants was evaluated by the bicinchoninic acid technique (BCA protein assay kit, Pierce Biotechnology, Rockford, Ill.). For hydroxycitrate-related weight-loss experiments, autophagy-deficient Atg4b^−/− mice were used. Atg4b^−/− mice have been previously described (Mariño et al., 2010). For HC-, spermidine-, and resveratrol-related experiments (tumour growth) mice were intraperitoneally injected with respectively 100 mg/kg, 50 mg/kg and 100 mg/kg doses at day 8 and day 9. At day 9, mice were intraperitoneally injected with 2 mg/kg single dose of Mitoxanthrone. For starvation related experiment (tumour growth) mice were treated as previously described (Fabrizio et. al., 2010).
Six weeks old female C57BL/6, Balb/c and nude athymic mice (Harlan Laboratory, Gannat, France) were bred and maintained according to both the FELASA and the Animal Experimental Inserm Ethics Committee Guidelines (project: 2012-69). Mice were housed in a temperature-controlled environment with 12 h light/dark cycles and received food and water ad libitum. For tumor growth experiments, procedures adopted are described as follows: 3×10^5 tumor cells were subcutaneously inoculated; when tumors became palpable (day −1 before chemotherapy), mice were first intraperitoneally injected with 100 mg/kg Potassium Hydroxycitrate, 10 mg/kg Acetylsalicylic Acid, 30 mg/kg SB204990, 30 mg/kg c646, 5 mg/kg Rapamycin, 25 mg/kg Resveratrol, 50 mg/kg Spermidine. At day 0, mice were intraperitoneally injected with the abovementioned compounds and with 5.17 mg/Kg Mitoxanthrone or 5 mg/kg Oxaliplatin. Tumor size was measured every two days. For starvation experiments, mice underwent 48 hour fasting followed by intreperitoneal injection of chemotherapeutics. For autophagy induction study, 6 hours after CRMs administration, mice were sacrificed and tissues were snap-frozen in liquid nitrogen after extraction and homogenized two cycles for 20 s at 5,500 rpm using Precellys 24 tissue homogenator (Bertin Technologies, Montigny-le-Bretonneux, France) in a 20 mM Tris buffer (pH 7.4) containing 150 mM NaCl, 1% Triton X-100, 10 mM EDTA and Complete® protease inhibitor cocktail (Roche Applied Science, Penzberg, Germany). Tissue extracts were then centrifuged at 12,000 g at 4° C. and supernatants were collected. Protein concentration in the supernatants was evaluated by the bicinchoninic acid technique (BCA protein assay kit, Pierce Biotechnology, Rockford, US.

[4] = tested on: autophagy in mice tissues; assay: Autophagy induction in tissues of fed mice (LC3 lipidation, p62, GFP-LC3 dots); assay type: in vivo
Description: as §1
To avoid post-mortem autophagy induction, dead mice were immediately perfused with 4% paraformaldehyde (w:v in PBS, pH 7.4). Tissues were then harvested and further fixed with the same solution for at least 4 h, followed by treatment with 15% sucrose (w:v in PBS) for 4 h and with 30% sucrose (w:v in PBS) overnight. Tissue samples were embedded in Tissue-Tek OCT compound (Sakura Finetechnical Co. Ltd., Tokyo, Japan) and stored at −70° C. Five μm-thick tissue sections were prepared with a CM3050 S cryostat (Leica Microsystems GmbH, Wetzlar, Germany), air-dried for 1 h, washed in PBS for 5 min, dried at RT for 30 min, and mounted with VECTASHIELD anti-fading medium. In each organ, the number of GFP-LC3 dots was counted in five independent visual fields from at least five mice using a TCS SP2 confocal fluorescence microscope (Leica Microsystems GmbH).
Six weeks old female C57BL/6, Balb/c and nude athymic mice (Harlan Laboratory, Gannat, France) were bred and maintained according to both the FELASA and the Animal Experimental Inserm Ethics Committee Guidelines (project: 2012-69). Mice were housed in a temperature-controlled environment with 12 h light/dark cycles and received food and water ad libitum. For tumor growth experiments, procedures adopted are described as follows: 3×10^5 tumor cells were subcutaneously inoculated; when tumors became palpable (day −1 before chemotherapy), mice were first intraperitoneally injected with 100 mg/kg Potassium Hydroxycitrate, 10 mg/kg Acetylsalicylic Acid, 30 mg/kg SB204990, 30 mg/kg c646, 5 mg/kg Rapamycin, 25 mg/kg Resveratrol, 50 mg/kg Spermidine. At day 0, mice were intraperitoneally injected with the abovementioned compounds and with 5.17 mg/Kg Mitoxanthrone or 5 mg/kg Oxaliplatin. Tumor size was measured every two days. For starvation experiments, mice underwent 48 hour fasting followed by intreperitoneal injection of chemotherapeutics. […]

[5] = chronic treatment; cited from earlier work

## Cn1cnc(N)c2ncnc1-2 [3-MA, 3-methyladenine]
Cellular ATP levels
  cellular ATP levels in starved cells: similarly reduced ATP content

## CC(=O)SCCNC(=O)CCNC(=O)[C@H](O)C(C)(C)COP(=O)(O)OP(=O)(O)OC[C@H]1O[C@@H](n2cnc3c(N)ncnc32)[C@H](O)[C@@H]1OP(=O)(O)O [AcCoA, acetyl-coenzyme A]
[1]
  Hydroxycitrate-induced autophagy after microinjection: suppressed by microinjection of AcCoA
[1]; listed as Acetyl CoA
  Hydroxycitrate-induced autophagy after microinjection: inhibits Hydroxycitrate-induced autophagy
[1]; starved cells
  cytoplasmic protein acetylation after microinjection: increased the levels of cytoplasmic protein acetylation
  starvation-induced autophagic flux after microinjection: reduced starvation-induced autophagic flux

## O=C1c2c(O)ccc(O)c2C(=O)c2c(NCCNCCO)ccc(NCCNCCO)c21 [MTX, mitoxanthrone]
[2]
  mammary tumor growth, monotherapy: had little effect

## NC(=O)CC[C@H](N)C(=O)O [glutamine]
[3]
  intracellular amino acid levels: did increase cellular glutamate levels

## Oc1ccc(C=Cc2cc(O)cc(O)c2)cc1 [resveratrol]
MCA205 tumor
  tumor growth, combined with MTX: capable to recapitulate the positive combinatorial effect of starvation; also recorded: HC could be replaced
  tumor growth, combined with MTX, immunodeficient mice: failed
MCA205 tumor; listed as Resveratrol
  tumor growth, combined with MTX: mimics the effects of 48 h fasting in delaying subcutaneous MCA205 tumor growth
[4]
  autophagy in vivo (LC3 lipidation, p62, GFP-LC3): elicits autophagy in mice muscle after 6 hours

## NCCCCNCCCN [spermidine]
MCA205 tumor
  tumor growth, combined with MTX: capable to recapitulate the positive combinatorial effect of starvation; also recorded: HC could be replaced
  tumor growth, combined with MTX, immunodeficient mice: failed
MCA205 tumor; listed as Spermidine
  tumor growth, combined with MTX: mimics the effects of 48 h fasting in delaying subcutaneous MCA205 tumor growth; also recorded: can enhance chemotherapy efficacy
[4]
  autophagy in vivo (LC3 lipidation, p62, GFP-LC3): elicits autophagy in mice muscle after 6 hours
[5]
  health and life spans of mice: extends the health and life spans of mice
